Source: PMC5218480 (PLoS ONE, 2017)

System: MV-4-11 cells
Assay: Gene expression microarray analysis (Affymetrix PrimeView) and GSEA
Type: cell-based, human
Design: RFU PODN (11730768_x_at) / Fold change /veh PODN (11730768_x_at) / RFU LINC00158 (11744669_a_at) / Fold change /veh LINC00158 (11744669_a_at) / RFU DUSP10 (11751237_a_at) / Fold change /veh DUSP10 (11751237_a_at) / RFU ID3 (11757404_x_at) / Fold change /veh ID3 (11757404_x_at) / RFU PLEKHG5 (11737974_s_at) / Fold change /veh PLEKHG5 (11737974_s_at) / RFU LRRC4B (11730491_at) / Fold change /veh LRRC4B (11730491_at) / RFU GIMAP4 (11747438_a_at) / Fold change /veh GIMAP4 (11747438_a_at) / RFU KRT8 (11758183_x_at) / Fold change /veh KRT8 (11758183_x_at) / RFU CNN1 (11734310_a_at) / Fold change /veh CNN1 (11734310_a_at) / RFU VPS37D (11726825_at) / Fold change /veh VPS37D (11726825_at) / RFU C10orf10 (11716522_x_at) / Fold change /veh C10orf10 (11716522_x_at) / RFU KIR2DL2 /// KIR2DL4 /// KIR2DL5A /// KIR2DL5B /// KIR2DS1 /// KIR2DS2 /// KIR2DS3 /// KIR2DS4 /// KIR3DL3 /// KIR3DL3 /// KIR3DS1 (11738374_at) / Fold change /veh KIR2DL2 /// KIR2DL4 /// KIR2DL5A /// KIR2DL5B /// KIR2DS1 /// KIR2DS2 /// KIR2DS3 /// KIR2DS4 /// KIR3DL3 /// KIR3DL3 /// KIR3DS1 (11738374_at) / RFU C1QL1 (11718748_at) / Fold change /veh C1QL1 (11718748_at) / RFU TMPRSS4 (11747572_a_at) / Fold change /veh TMPRSS4 (11747572_a_at) / RFU HAMP (11756126_x_at) / Fold change /veh HAMP (11756126_x_at) / RFU RNFT2 (11725882_a_at) / Fold change /veh RNFT2 (11725882_a_at) / RFU NR4A2 (11747474_a_at) / Fold change /veh NR4A2 (11747474_a_at) / RFU ABCC12 (11746883_a_at) / Fold change /veh ABCC12 (11746883_a_at) / RFU TMEM136 (11760407_x_at) / Fold change /veh TMEM136 (11760407_x_at) / RFU CLDN22 /// WWC2 (11732394_at) / Fold change /veh CLDN22 /// WWC2 (11732394_at) / RFU HLA-DPB1 (11760878_x_at) / Fold change /veh HLA-DPB1 (11760878_x_at) / RFU SPINT1 (11716480_a_at) / Fold change /veh SPINT1 (11716480_a_at) / RFU GAP43 (11754022_s_at) / Fold change /veh GAP43 (11754022_s_at) / RFU A4GNT (11735810_at) / Fold change /veh A4GNT (11735810_at) / RFU PRB3 (11715151_x_at) / Fold change /veh PRB3 (11715151_x_at) / RFU TUBB4B (11761932_at) / Fold change /veh TUBB4B (11761932_at) / RFU CAPN14 (11732068_a_at) / Fold change /veh CAPN14 (11732068_a_at) / RFU TMCC2 (11721928_a_at) / Fold change /veh TMCC2 (11721928_a_at) / RFU IRGQ (11745062_a_at) / Fold change /veh IRGQ (11745062_a_at) / RFU FAM174B (11720279_a_at) / Fold change /veh FAM174B (11720279_a_at) / RFU TMPRSS4 (11748680_a_at) / Fold change /veh TMPRSS4 (11748680_a_at) / RFU FAM212B (11763350_a_at) / Fold change /veh FAM212B (11763350_a_at) / RFU PLEKHG5 (11743358_a_at) / Fold change /veh PLEKHG5 (11743358_a_at) / RFU ZSCAN30 (11745921_a_at) / Fold change /veh ZSCAN30 (11745921_a_at) / RFU CMKLR1 (11741424_a_at) / Fold change /veh CMKLR1 (11741424_a_at) / RFU LOC101060620 /// MAPK8IP1 (11723275_at) / Fold change /veh LOC101060620 /// MAPK8IP1 (11723275_at) / RFU SPTSSB (11747773_x_at) / Fold change /veh SPTSSB (11747773_x_at) / RFU PRSS12 (11739890_at) / Fold change /veh PRSS12 (11739890_at) / RFU BIN1 (11741810_x_at) / Fold change /veh BIN1 (11741810_x_at) / RFU WNT11 (11732464_a_at) / Fold change /veh WNT11 (11732464_a_at) / RFU C10orf10 (11716521_a_at) / Fold change /veh C10orf10 (11716521_a_at) / RFU C5orf56 (11738089_at) / Fold change /veh C5orf56 (11738089_at) / RFU CYB561 (11721691_x_at) / Fold change /veh CYB561 (11721691_x_at) / RFU ANKRD19P (11752326_a_at) / Fold change /veh ANKRD19P (11752326_a_at) / RFU OR2T12 /// OR2T33 /// OR2T8 (11738714_s_at) / Fold change /veh OR2T12 /// OR2T33 /// OR2T8 (11738714_s_at) / RFU VCAN (11748164_a_at) / Fold change /veh VCAN (11748164_a_at) / RFU JSRP1 (11732532_at) / Fold change /veh JSRP1 (11732532_at) / RFU KRTAP10-11 (11738290_x_at) / Fold change /veh KRTAP10-11 (11738290_x_at) / RFU MYO3A (11730013_a_at) / Fold change /veh MYO3A (11730013_a_at) / RFU EBF3 (11725865_a_at) / Fold change /veh EBF3 (11725865_a_at) / RFU CAMK2N1 (11719241_x_at) / Fold change /veh CAMK2N1 (11719241_x_at) / RFU C5orf56 (11738088_a_at) / Fold change /veh C5orf56 (11738088_a_at) / RFU OLFML3 (11715873_a_at) / Fold change /veh OLFML3 (11715873_a_at) / RFU LOC100653217 /// NTM (11731650_a_at) / Fold change /veh LOC100653217 /// NTM (11731650_a_at) / RFU MAPK11 (11762145_a_at) / Fold change /veh MAPK11 (11762145_a_at) / RFU FIZ1 (11724087_x_at) / Fold change /veh FIZ1 (11724087_x_at) / RFU OASL (11726364_x_at) / Fold change /veh OASL (11726364_x_at) / RFU SOX15 (11748057_x_at) / Fold change /veh SOX15 (11748057_x_at) / RFU CD79A (11719716_a_at) / Fold change /veh CD79A (11719716_a_at) / RFU HIST1H1D (11736915_at) / Fold change /veh HIST1H1D (11736915_at) / RFU CASKIN2 (11723855_a_at) / Fold change /veh CASKIN2 (11723855_a_at) / RFU LOC730098 (11760151_x_at) / Fold change /veh LOC730098 (11760151_x_at) / RFU OR4N2 (11742367_at) / Fold change /veh OR4N2 (11742367_at) / RFU PRRT2 (11749266_a_at) / Fold change /veh PRRT2 (11749266_a_at) / RFU SNX32 (11753110_a_at) / Fold change /veh SNX32 (11753110_a_at) / RFU CDHR5 (11726645_a_at) / Fold change /veh CDHR5 (11726645_a_at) / RFU RCAN1 (11760418_a_at) / Fold change /veh RCAN1 (11760418_a_at) / RFU FAM167A (11723789_a_at) / Fold change /veh FAM167A (11723789_a_at) / RFU FAM26E (11764081_at) / Fold change /veh FAM26E (11764081_at) / RFU ISYNA1 (11749810_s_at) / Fold change /veh ISYNA1 (11749810_s_at) / RFU ACY1 (11761880_at) / Fold change /veh ACY1 (11761880_at) / RFU 11764098_at / Fold change /veh 11764098_at / RFU SAMD14 (11745864_x_at) / Fold change /veh SAMD14 (11745864_x_at) / RFU NPB (11741838_a_at) / Fold change /veh NPB (11741838_a_at) / RFU TMPRSS6 (11731388_a_at) / Fold change /veh TMPRSS6 (11731388_a_at) / RFU KRTAP10-2 (11738614_at) / Fold change /veh KRTAP10-2 (11738614_at) / RFU ARHGAP8 /// PRR5-ARHGAP8 (11727945_x_at) / Fold change /veh ARHGAP8 /// PRR5-ARHGAP8 (11727945_x_at) / RFU KRTAP5-7 /// NADSYN1 (11734609_at) / Fold change /veh KRTAP5-7 /// NADSYN1 (11734609_at) / RFU RASL12 (11751679_a_at) / Fold change /veh RASL12 (11751679_a_at) / RFU CDKN2B (11736163_a_at) / Fold change /veh CDKN2B (11736163_a_at) / RFU PRF1 (11729649_at) / Fold change /veh PRF1 (11729649_at) / RFU, ZNF638 /// ZNF638-IT1 / Fold change vs veh, ZNF638 /// ZNF638-IT1 / RFU, PANK3 / Fold change vs veh, PANK3 / RFU, SH3YL1 / Fold change vs veh, SH3YL1 / RFU, ZEB2 / Fold change vs veh, ZEB2 / RFU, NRIP1 / Fold change vs veh, NRIP1 / RFU, PTTG1IP / Fold change vs veh, PTTG1IP / RFU, CAPN2 / Fold change vs veh, CAPN2 / RFU, MED14 / Fold change vs veh, MED14 / RFU, SNORA58 / Fold change vs veh, SNORA58 / RFU, C1orf63 / Fold change vs veh, C1orf63 / RFU, LRRFIP1 / Fold change vs veh, LRRFIP1 / RFU, NDUFAF7 / Fold change vs veh, NDUFAF7 / RFU, SLC12A2 / Fold change vs veh, SLC12A2 / RFU, IBTK / Fold change vs veh, IBTK / RFU, ESF1 / Fold change vs veh, ESF1 / Fold change vs veh, TMEM50B / RFU, TAOK1 / Fold change vs veh, TAOK1 / RFU, ACBD3 / Fold change vs veh, ACBD3 / RFU, TMA16 / Fold change vs veh, TMA16 / RFU, RWDD3 / Fold change vs veh, RWDD3 / RFU, BCAT1 / Fold change vs veh, BCAT1 / RFU, EDEM3 / Fold change vs veh, EDEM3 / RFU, TMEM33 / Fold change vs veh, TMEM33 / RFU, WDR75 / Fold change vs veh, WDR75 / RFU, AHCTF1 / Fold change vs veh, AHCTF1 / RFU, TFRC / Fold change vs veh, TFRC / RFU, ZDHHC17 / Fold change vs veh, ZDHHC17 / RFU, NOM1 / Fold change vs veh, NOM1 / RFU, ARL8B / Fold change vs veh, ARL8B / RFU, ZBTB11 / Fold change vs veh, ZBTB11 / RFU, TAMM41 / Fold change vs veh, TAMM41 / RFU, KIAA1704 /// LOC100996395 / Fold change vs veh, KIAA1704 /// LOC100996395 / RFU, ING1 / Fold change vs veh, ING1 / RFU, TRMT61B / Fold change vs veh, TRMT61B / RFU, FUBP3 / Fold change vs veh, FUBP3 / RFU, TP53 / Fold change vs veh, TP53 / RFU, TNKS2 / Fold change vs veh, TNKS2 / RFU, ZFP14 / Fold change vs veh, ZFP14 / RFU, ACTR2 / Fold change vs veh, ACTR2 / RFU, PPP3R1 / Fold change vs veh, PPP3R1 / RFU, PIK3R1 / Fold change vs veh, PIK3R1 / RFU, HNRNPA1 / Fold change vs veh, HNRNPA1 / RFU, RNF170 / Fold change vs veh, RNF170 / RFU, ZNF28 / Fold change vs veh, ZNF28 / RFU, RNGTT / Fold change vs veh, RNGTT / RFU, OGT / Fold change vs veh, OGT / RFU, BRD1 / Fold change vs veh, BRD1 / RFU, MARS / Fold change vs veh, MARS / RFU, ZNF655 / Fold change vs veh, ZNF655 / RFU, FAHD1 / Fold change vs veh, FAHD1 / RFU, BDP1 / Fold change vs veh, BDP1 / RFU, LRRCC1 / Fold change vs veh, LRRCC1 / RFU, ARID1A / Fold change vs veh, ARID1A / RFU, ZNF146 / Fold change vs veh, ZNF146 / RFU, ZNF330 / Fold change vs veh, ZNF330 / RFU, GPN3 / Fold change vs veh, GPN3 / RFU, C9orf123 / Fold change vs veh, C9orf123 / RFU, N4BP2L2 / Fold change vs veh, N4BP2L2 / RFU, ARFIP1 / Fold change vs veh, ARFIP1 / RFU, FAM179B / Fold change vs veh, FAM179B / RFU, BCL10 / Fold change vs veh, BCL10 / RFU, UHRF1BP1L / Fold change vs veh, UHRF1BP1L / RFU, BET1 / Fold change vs veh, BET1 / RFU, CNOT2 / Fold change vs veh, CNOT2 / RFU, ZNF268 / Fold change vs veh, ZNF268 / Fold change vs veh, ZNF507 / RFU, DGCR2 / Fold change vs veh, DGCR2 / RFU, WDSUB1 / Fold change vs veh, WDSUB1 / Fold change vs veh, HSP90B1 /// MIR3652 / RFU, ADSS / Fold change vs veh, ADSS / RFU, GK / Fold change vs veh, GK / RFU, ZNF148 / Fold change vs veh, ZNF148 / RFU, TAF9 / Fold change vs veh, TAF9 / RFU, SLC1A5 / Fold change vs veh, SLC1A5 / RFU, SLMO2 / Fold change vs veh, SLMO2 / RFU, ABCC4 / Fold change vs veh, ABCC4 / RFU, LOC101060439 /// RAP1B / Fold change vs veh, LOC101060439 /// RAP1B / RFU, RFX7 / Fold change vs veh, RFX7 / RFU, GTPBP10 / Fold change vs veh, GTPBP10 / RFU, CNEP1R1 / Fold change vs veh, CNEP1R1 / RFU, BIVM-ERCC5 /// ERCC5 / Fold change vs veh, BIVM-ERCC5 /// ERCC5 / RFU, ILF3 / Fold change vs veh, ILF3 / RFU 11762660_at / Fold change /veh 11762660_at / RFU VCAN (11757783_s_at) / Fold change /veh VCAN (11757783_s_at) / RFU DDX43 (11728927_at) / Fold change /veh DDX43 (11728927_at) / RFU KRT8 (11758188_x_at) / Fold change /veh KRT8 (11758188_x_at) / RFU NKD1 (11759106_at) / Fold change /veh NKD1 (11759106_at) / RFU SRD5A1 (11742802_a_at) / Fold change /veh SRD5A1 (11742802_a_at) / RFU TPSAB1 /// TPSB2 (11721975_s_at) / Fold change /veh TPSAB1 /// TPSB2 (11721975_s_at) / RFU GSTM3 (11746129_a_at) / Fold change /veh GSTM3 (11746129_a_at) / RFU IL23R (11737362_x_at) / Fold change /veh IL23R (11737362_x_at) / RFU TMEM51 (11727254_a_at) / Fold change /veh TMEM51 (11727254_a_at) / RFU PIWIL2 (11732686_x_at) / Fold change /veh PIWIL2 (11732686_x_at) / RFU ORM1 (11744905_x_at) / Fold change /veh ORM1 (11744905_x_at) / RFU CCDC152 (11743942_at) / Fold change /veh CCDC152 (11743942_at) / RFU ECM1 (11717891_a_at) / Fold change /veh ECM1 (11717891_a_at) / RFU IL23R (11748794_a_at) / Fold change /veh IL23R (11748794_a_at) / RFU TNFAIP8L3 (11732012_x_at) / Fold change /veh TNFAIP8L3 (11732012_x_at) / RFU MBOAT4 (11741988_at) / Fold change /veh MBOAT4 (11741988_at) / RFU 11764193_at / Fold change /veh 11764193_at / RFU TMEM53 (11763286_at) / Fold change /veh TMEM53 (11763286_at) / RFU MAGEB2 (11727129_at) / Fold change /veh MAGEB2 (11727129_at) / RFU TMEM200A (11744735_a_at) / Fold change /veh TMEM200A (11744735_a_at) / RFU CCDC152 (11751479_a_at) / Fold change /veh CCDC152 (11751479_a_at) / RFU FAM211A (11726209_a_at) / Fold change /veh FAM211A (11726209_a_at) / RFU RGS16 (11746705_a_at) / Fold change /veh RGS16 (11746705_a_at) / RFU VCAN (11755009_s_at) / Fold change /veh VCAN (11755009_s_at) / RFU RHOB (11743442_s_at) / Fold change /veh RHOB (11743442_s_at) / RFU RGS16 (11720943_a_at) / Fold change /veh RGS16 (11720943_a_at) / RFU RGS16 (11720944_at) / Fold change /veh RGS16 (11720944_at) / RFU, VPS4B / Fold change vs veh, VPS4B / RFU, CREB1 / Fold change vs veh, CREB1 / RFU, DNAJC13 / Fold change vs veh, DNAJC13 / RFU, GNAQ / Fold change vs veh, GNAQ / RFU, CDK5R1 / Fold change vs veh, CDK5R1 / RFU, ZRANB3 / Fold change vs veh, ZRANB3 / RFU, CUL4A / Fold change vs veh, CUL4A / RFU, CCNY / Fold change vs veh, CCNY / RFU, UFL1 / Fold change vs veh, UFL1 / RFU, COG3 / Fold change vs veh, COG3 / RFU, DIAPH2 / Fold change vs veh, DIAPH2 / RFU, SKA2 / Fold change vs veh, SKA2 / RFU, AFF3 / Fold change vs veh, AFF3 / RFU, LMF1 / Fold change vs veh, LMF1 / RFU, IPO11 / Fold change vs veh, IPO11 / RFU, DFFB / Fold change vs veh, DFFB / RFU, FOXP1 / Fold change vs veh, FOXP1 / RFU, CARD8 / Fold change vs veh, CARD8 / RFU, STRN3 / Fold change vs veh, STRN3 / RFU, ADK / Fold change vs veh, ADK / RFU, RASSF2 / Fold change vs veh, RASSF2 / RFU, WIPF1 / Fold change vs veh, WIPF1 / RFU, LARP1B / Fold change vs veh, LARP1B / RFU, RASA1 / Fold change vs veh, RASA1 / RFU, RB1 / Fold change vs veh, RB1 / RFU, PPFIA1 / Fold change vs veh, PPFIA1 / RFU, MAT2A / Fold change vs veh, MAT2A / RFU, CCT5 / Fold change vs veh, CCT5 / RFU, WDR92 / Fold change vs veh, WDR92 / RFU, CUX1 / Fold change vs veh, CUX1 / RFU, TTC7A / Fold change vs veh, TTC7A / RFU, TMEM135 / Fold change vs veh, TMEM135 / RFU, DEPTOR / Fold change vs veh, DEPTOR / RFU, CPM / Fold change vs veh, CPM / RFU, DNAJB6 / Fold change vs veh, DNAJB6 / RFU, CACNA2D3 / Fold change vs veh, CACNA2D3 / RFU, DTX4 / Fold change vs veh, DTX4 / RFU, TFCP2 / Fold change vs veh, TFCP2 / RFU, GMCL1 /// GMCL1P1 / Fold change vs veh, GMCL1 /// GMCL1P1 / RFU, AEBP2 / Fold change vs veh, AEBP2 / RFU, SNHG1 /// SNORD22 /// SNORD25 /// SNORD26 /// SNORD27 /// SNORD28 /// SNORD29 /// SNORD31 / Fold change vs veh, SNHG1 /// SNORD22 /// SNORD25 /// SNORD26 /// SNORD27 /// SNORD28 /// SNORD29 /// SNORD31 / Fold change (Aza/veh), C12orf56 (ProbeSet 11735607_a_at) / Fold change (ACY-1035/veh), C12orf56 (ProbeSet 11735607_a_at) / Fold change (Aza/veh), FGFR1OP (ProbeSet 11751329_s_at) / Fold change (ACY-1035/veh), FGFR1OP (ProbeSet 11751329_s_at) / Fold change (Aza/veh), VPS36 (ProbeSet 11739960_a_at) / Fold change (ACY-1035/veh), VPS36 (ProbeSet 11739960_a_at) / RFU SYPL1 (11715823_x_at) / Fold change /veh SYPL1 (11715823_x_at) / RFU IGFBP7 (11715501_s_at) / Fold change /veh IGFBP7 (11715501_s_at) / RFU REEP3 (11722064_at) / Fold change /veh REEP3 (11722064_at) / RFU IGLL1 (11728026_x_at) / Fold change /veh IGLL1 (11728026_x_at): dose or concentration left out as unconfirmed
Conditions: ProbeSet 11747888_a_at; LIST D

Question: `Nc1ncn([C@@H]2O[C@H](CO)[C@@H](O)[C@H]2O)c(=O)n1` [azacitidine] was tested. Which “Fold change vs veh, SH3YL1” value did it give?
Answer: Its value is 0.79.
